# Source: PubChem BioAssay AID367 (MTDP, 2006)
# Values joined by “and” are separate entries in the source; they are usually repeats but may differ in a detail not shown here. Equal entries are not always repeated. Active and inactive are the calls of the source. No rule for the calls is given here.
# Biological target: Gag-Pol polyprotein (Human immunodeficiency virus type 2 subtype A (isolate ROD)) (UniProt P04584)
# Assay: Ribonuclease H inhibitors of HIV-2 reverse transcriptase, biochemical dose response (AID 367)
# Conditions: HIV-2 RNase H, FRET RNA/DNA substrate cleavage
# Sequence of Gag-Pol polyprotein (Human immunodeficiency virus type 2 subtype A (isolate ROD)) (P04584 whole entry, looked up): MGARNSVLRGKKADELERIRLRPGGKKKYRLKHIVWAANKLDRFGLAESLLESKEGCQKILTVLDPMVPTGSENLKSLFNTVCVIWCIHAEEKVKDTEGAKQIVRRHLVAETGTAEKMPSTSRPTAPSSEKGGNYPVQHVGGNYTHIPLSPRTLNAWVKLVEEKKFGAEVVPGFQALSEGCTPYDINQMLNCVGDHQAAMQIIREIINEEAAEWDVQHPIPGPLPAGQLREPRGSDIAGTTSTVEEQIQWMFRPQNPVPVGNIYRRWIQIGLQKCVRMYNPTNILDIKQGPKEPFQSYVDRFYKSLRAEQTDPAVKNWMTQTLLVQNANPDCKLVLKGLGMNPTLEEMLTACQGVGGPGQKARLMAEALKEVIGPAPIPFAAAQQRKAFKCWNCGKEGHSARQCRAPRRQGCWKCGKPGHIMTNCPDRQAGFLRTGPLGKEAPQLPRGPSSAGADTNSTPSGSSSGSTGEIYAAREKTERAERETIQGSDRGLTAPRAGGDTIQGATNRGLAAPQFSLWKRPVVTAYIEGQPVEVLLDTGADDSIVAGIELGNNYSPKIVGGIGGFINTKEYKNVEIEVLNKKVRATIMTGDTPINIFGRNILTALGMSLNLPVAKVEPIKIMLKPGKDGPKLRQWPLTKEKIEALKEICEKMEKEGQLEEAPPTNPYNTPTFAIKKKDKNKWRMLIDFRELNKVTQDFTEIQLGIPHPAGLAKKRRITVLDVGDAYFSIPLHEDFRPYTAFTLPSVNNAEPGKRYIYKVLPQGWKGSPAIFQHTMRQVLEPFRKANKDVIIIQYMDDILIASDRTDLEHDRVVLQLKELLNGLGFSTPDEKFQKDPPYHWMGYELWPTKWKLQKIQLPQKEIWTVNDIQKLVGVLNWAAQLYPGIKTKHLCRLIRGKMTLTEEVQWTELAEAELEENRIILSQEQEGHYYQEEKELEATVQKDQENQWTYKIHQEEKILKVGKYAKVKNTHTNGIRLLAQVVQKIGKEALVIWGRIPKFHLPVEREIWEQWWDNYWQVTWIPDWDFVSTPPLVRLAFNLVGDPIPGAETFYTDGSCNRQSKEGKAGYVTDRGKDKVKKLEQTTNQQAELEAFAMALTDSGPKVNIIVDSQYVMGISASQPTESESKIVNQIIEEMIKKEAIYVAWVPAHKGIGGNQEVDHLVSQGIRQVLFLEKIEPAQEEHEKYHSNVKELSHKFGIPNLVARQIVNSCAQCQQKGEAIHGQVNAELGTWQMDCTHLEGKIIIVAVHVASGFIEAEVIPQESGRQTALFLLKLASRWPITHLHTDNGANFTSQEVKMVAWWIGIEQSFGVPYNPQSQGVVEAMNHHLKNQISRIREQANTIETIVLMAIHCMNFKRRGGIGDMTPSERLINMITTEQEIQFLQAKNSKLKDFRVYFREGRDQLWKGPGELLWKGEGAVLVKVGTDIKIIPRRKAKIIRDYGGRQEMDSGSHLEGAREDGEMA
row,Compound,IC50
1,CC1=c2c(oc3cc(O)c(Nc4c(C)cc(O)cc4O)c(C)c23)=CC(=O)C1=Nc1c(C)cc(O)cc1O,2000 nM
2,CC(C)c1ccc(O)c(O)c(=O)c1,1000 nM
3,O=C1C=C(NCCc2cc(Br)c(O)c(Br)c2)C(=O)c2ncccc21,1700 nM
4,Cc1cccc(NCC(=O)N/N=C\c2c(Br)cc(Br)c(O)c2Br)c1,inactive
5,Cc1sc2nc(-c3ccc([N+](=O)[O-])cc3)[nH]c(=O)c2c1C,640 nM
6,CC1Oc2cc3c(-c4c(O)cc(O)c5c(O)c6c(cc45)OC(C)C(C)C6=O)c(O)cc(O)c3c(O)c2C(=O)C1C (centres undefined),8200 nM
7,Cc1ccc(-c2n[nH]c(=S)n2/N=C/c2ccc(O)c(O)c2O)cc1,3800 nM
8,CCC(=O)Nc1sc2c(c1C(=O)Nc1ccc(OC)cc1)CCCCC2,inactive
9,O=C1c2ccccc2C(=O)c2c(O)c(O)cc(O)c21,5000 nM
10,O=C(CSc1nc2ccccc2s1)c1sc2sc3ccccc3[n+]2c1[O-],1900 nM
11,CCCc1cc(=O)oc2c3c(c4c(c12)OC(C)(C)C=C4)O[C@@H](C)[C@H](C)[C@@H]3F,inactive
12,Cc1sc(NC(=O)c2ccc(Br)o2)c(C(N)=O)c1C,7000 nM
13,O=C1C(Cl)=C(Nc2ccc(S(=O)(=O)Nc3ccccn3)cc2)C(=O)c2ccccc21,3400 nM
14,C=Cc1c(C)c2cc3[nH]c(cc4nc(cc5nc(cc1[nH]2)C(C)=C5CCC(=O)O)C(CCC(=O)O)=C4C)c(C)c3C=C,1700 nM
15,CC(C)c1ccc(O)c(O)c(=O)c1 (tested in a mixture with another compound),800 nM
16,O=C(O)/C=C/c1c2ccc(=O)c(O)c-2oc2c(O)c(O)ccc12,500 nM
17,COC(=O)c1cc2cc3cc4cc(CC(=O)O)c(C(=O)/C=C(\O)c5ccccc5O)c(OC)c4c(OC)c3c(O)c2c(=O)o1,8600 nM
18,NCC[Se][Se]CCN,2000 nM
19,O=C1CC(=O)c2ccc3c4c(ccc1c24)C(=O)CC3=O,3800 nM
20,Cc1ccc(C=C2C(=O)NC(=S)N(c3ccccc3Cl)C2=O)o1,inactive
21,CC(=O)C1=C(O)[C@@]2(O)C(=O)c3c(c(C)c4ccc(C)c(O)c4c3O)C[C@H]2[C@@H](N)C1=O,4400 nM
22,c1ccc(C(c2cccc3c2ccc2ccccc23)C(c2ccccc2)c2cccc3c2ccc2ccccc23)cc1 (centres undefined),inactive
23,O=C(Nc1ccc(N2CCN(C(=O)c3ccccc3)CC2)cc1)c1ccc(-c2ccccc2)cc1,2600 nM
24,CCc1c(O)c2c(c(O)c1C(C)=O)C(=O)c1c(cc(O)c(C(=O)O)c1C(=O)O)C2=O,3500 nM

row,Compound,IC50
1,Cc1cc(C(=O)O)ccc1-n1c(C)ccc1C,inactive
2,Cc1cc(=O)c2c(O)c3c(O)cc(O)c4c5c(O)cc(O)c6c(O)c7c(=O)cc(C)c8c1c2c(c34)c(c65)c78,inactive
3,COc1ccc(N2C(=O)/C(=C\c3cn(CC(=O)Nc4ccccc4)c4ccccc34)C(=O)NC2=S)cc1,2800 nM
4,Nc1c(S(=O)(=O)O)cc(Nc2cccc(S(N)(=O)=O)c2)c2c1C(=O)c1ccccc1C2=O,4000 nM
5,O=C(O)c1cc(-c2ccc(/C=C3/Sc4ccccc4C3=O)o2)ccc1O,3300 nM
6,C=C(CCC(C(=O)O)C1CCC2(C)C3=C(CCC12C)C1(C)CCC(O)C(C)(C)C1CC3)C(C)C (centres undefined),inactive
7,O=C1NN(c2ccc(I)cc2)C(=O)/C1=C\c1ccc(O)c(O)c1,4100 nM
8,O=C1NC(=S)N(c2ccc(Cl)cc2)C(=O)/C1=C/c1ccc(Br)o1,1700 nM
9,COc1ccc(-c2nc3sc(-c4ccc(OC)cc4)nc3s2)cc1,2900 nM
10,CCOc1ccc(N2C(=O)/C(=C/c3ccc(I)o3)C(=O)NC2=S)cc1,2000 nM
11,O=C1NC(=S)N(c2ccc(Cl)cc2)C(=O)/C1=C\C=C\c1ccccc1[N+](=O)[O-],8000 nM
12,O=C1NC(=S)N(c2ccc(Cl)cc2)C(=O)/C1=C/c1ccco1,inactive
13,O=[N+]([O-])c1ccc2c(N=Nc3ccc4ccccc4c3O)c(O)cc(S(=O)(=O)O)c2c1,2200 nM
14,O=C(Nc1sc2c(c1C(=O)Nc1cccc3ccccc13)CCCCC2)c1ccccc1F,inactive
15,COc1ccc(/C=C\C(=O)c2c(-c3ccccc3)c3cc(C)ccc3[nH]c2=O)c(OC)c1,inactive
16,O=C1C=C/C(=N\S(=O)(=O)c2cc(Cl)ccc2Cl)C=C1Cl,2000 nM
17,Cc1ccc(C)n1-c1ccc(SCC(=O)O)cc1,2000 nM
18,Cc1ccc(S(=O)(=O)/N=C2\C=CC(=O)C=C2Cl)cc1,2100 nM
19,O=C1NC(=S)N(c2cccc(Cl)c2)C(=O)/C1=C\C=C\c1ccco1,7000 nM
20,COc1ccccc1N=C(NOCc1ccc(Cl)cc1Cl)c1nonc1N,inactive
21,CC(=O)O[C@H](C)[C@@H]1C2=C(C(=O)C[C@]1(C)O)C(=O)c1c(ccc(-c3ccc4c(c3O)C(=O)C3=C(C4=O)[C@@H]([C@@H](C)OC(C)=O)[C@@](C)(O)CC3=O)c1O)C2=O,inactive
22,O=c1[nH]c2[nH]c(=S)[nH]c(=S)c2[nH]1,4000 nM
23,O=C1c2ccccc2C(=O)c2c(NC3CCCCC3)ccc(Nc3ccc(S(=O)(=O)O)cc3)c21,4800 nM
24,Cc1cc(O)c2c(c1O)C(=O)c1cccc(O)c1C2=O,> 100000 nM (inactive)

row,Compound,IC50
1,COC(=O)c1cc2c3c(ccc2[nH]1)N(C(=O)c1cc2c4c(ccc2[nH]1)N(C(=O)c1cc2c5c(ccc2[nH]1)N(C(N)=O)CC5)CC4)CC3,8100 nM
2,Cc1ccc(C(=O)NC(=S)Nc2ccc(-c3nc4ccccc4s3)cc2)cc1[N+](=O)[O-],inactive
3,O=c1[nH]c(=S)n(-c2ccccc2F)c(O)c1C=C1C=CC=N1,2300 nM
4,COc1ccccc1NC(=O)c1c(NC(=O)Cc2ccccc2)sc2c1CCCCC2,8500 nM
5,Cc1ccc(NC(=O)c2c(NC(=O)c3ccccc3F)sc3c2CCCCC3)cc1,5000 nM
6,C[C@]12CC[C@H]3[C@@H](CCC4=CC(=O)CC[C@@]43C)[C@@H]1CC[C@@H]2C(=O)COS(=O)(=O)c1ccc(Br)cc1,7100 nM
7,Cc1cc(O)c2c(c1O)C(=O)C13C(=C2O)C(=O)C2C(O)C1C1C(O)C3C(=O)C3=C(O)c4c(O)cc(C)c(O)c4C(=O)C321 (centres undefined),8200 nM
8,O=S(=O)(O)c1cc(N=[N+]([O-])c2cc(S(=O)(=O)O)c3ccccc3c2)cc2ccccc12,inactive
9,C[C@H]1[C@H](O)c2c(c3c(c4c(-c5ccccc5)cc(=O)oc24)OC(C)(C)C=C3)O[C@@H]1C,inactive
10,CN(C)S(=O)(=O)c1ccc(Nc2ccc(O)c3c2C(=O)c2c([N+](=O)[O-])ccc(O)c2C3=O)cc1,8000 nM
11,COc1cc(/C=N\c2sc3c(c2C(=O)NCc2ccccc2)CCCC3)cc(Cl)c1O,2800 nM
12,Cc1ccc(C2COc3cc(O)c(O)cc3C2)cc1 (centres undefined),600 nM
13,O=C(Cc1ccccc1Cl)c1ccc(O)c(O)c1O,2000 nM
14,O=[N+]([O-])c1c(Cl)cccc1-c1c[nH]cc1Cl,> 100000 nM (inactive)
15,C=CC1=C(C)C2=NC1=CC1=NC(=CC3=C(C)C4=C(O)C(C(=O)OC)C(=C5NC(=C2)C(C)C5CCC(=O)OC/C=C(\C)CCCC(C)CCCC(C)CCCC(C)C)C4=N3)C(CC)=C1C (centres undefined),> 100000 nM (inactive)
16,C=C/C(C)=C/C[C@]1(C)[C@H](C)CC[C@@]23C(=C[C@H](OC(=O)c4ccc(O)c(OC)c4)C[C@@H]12)[C@@H](OC(C)=O)O[C@H]3OC(C)=O,inactive
17,CC(C)=CCC/C(C)=C/Cc1cc(/C=C/c2cc(O)c(C/C=C(\C)CCC=C(C)C)c(O)c2)cc(O)c1O,8200 nM
18,O=S(=O)(Nc1cccc(C(F)(F)F)c1)c1ccc2ccccc2c1,inactive
19,Oc1cc(O)c2c(c1)OC(c1ccc(O)c(O)c1)C(OC1(c3cc(O)c(O)c(O)c3)Oc3cc(O)cc(O)c3C(O)C1O)C2 (centres undefined),1600 nM
20,C=C1C(=O)O[C@@H]2/C=C(\C)CC/C=C(\C(=O)O)CC/C=C(\C)CC[C@H]12,5500 nM
21,CCCCCCCCCCCCCCCC(=O)OCC1OC(n2ccc(N)nc2=O)C(O)C1O (centres undefined),inactive
22,Oc1ccc(/C=N/Nc2nncc(-c3ccccc3)n2)c(O)c1O,1100 nM
23,O=C1C(Cl)=CC(=NS(=O)(=O)c2ccccc2)C=C1Cl,1000 nM
24,CCOc1cccc(N2C(=O)/C(=C/c3cn(CC(=O)OC)c4ccccc34)C(=O)NC2=S)c1,2800 nM

row,Compound,IC50
1,CC(C)=CCC1=C(O)[C@@](O)(CC=C(C)C)C(=O)C(C(=O)CC(C)C)=C1O,2800 nM
2,O=C(O)C1Nc2c(Cl)cc(Cl)cc2C2C=CCC12 (centres undefined),inactive
3,COc1cccc(-c2nc3cc(NC(=O)/C=C\c4ccccc4)ccc3o2)c1,9200 nM
4,COc1cc(-c2[o+]c3cc(O)cc(O)c3cc2O)cc(O)c1O,4100 nM and 3100 nM
5,O=C1O/C(=C(/C(=O)O)c2ccc(O)cc2)C(O)=C1c1cc2c3c(c(O)cc(C4=C(O)/C(=C(\C(=O)O)c5ccc(O)cc5)OC4=O)c3c1)OC2=O,1400 nM
6,CCCCCCCCCCCCCCCCCCOCC(O)CO (centres undefined),> 100000 nM (inactive)
7,C=CCn1c(N)c(-c2nc3ccccc3[nH]2)sc1=S,3900 nM
8,O=C1c2ccccc2C(=O)c2c1cc(O)c(O)c2O,400 nM
9,CC(C)=CCC[C@]1(C)[C@@H](CC=C(C)C)C[C@@]2(CC=C(C)C)C(=O)/C(=C(\O)c3ccc(O)c(O)c3)C(=O)[C@]1(CC=C(C)C)C2=O,4800 nM
10,Cc1ccc(S(=O)(=O)N=C2C=CC(=O)C=C2)c(C)c1,4300 nM
11,N#Cc1c(N)nc(SCC(=O)c2ccc(O)c(O)c2)c(C#N)c1-c1ccc(O)cc1,430 nM
12,O=C1Nc2ccc(I)cc2C1(O)N1CCOCC1 (centres undefined),6300 nM
13,COc1ccc(N2C(=O)/C(=C/c3ccc(I)o3)C(=O)NC2=S)cc1,1300 nM
14,Cc1onc(-c2ccccc2)c1C(=O)Nc1sc(C)c(C)c1C(N)=O,inactive
15,C[C@@H]1[C@H](O)c2c(c3c(c4c(-c5ccccc5)cc(=O)oc24)OC(C)(C)C=C3)O[C@@H]1C,inactive
16,CCN1C(=O)/C(=C/c2ccoc2)C(=O)NC1=S,inactive
17,O=C(N/N=C/c1ccccc1Cl)c1cc(O)c(O)c(O)c1,800 nM
18,O=C1/C(=C/c2ccc(O)c(O)c2)SC(=S)N1c1ccc(O)cc1,2600 nM
19,Cc1ccc(C(=O)Nc2sc(C)c(C)c2C(N)=O)cc1,800 nM
20,CC1=NN(c2ccc(S(N)(=O)=O)cc2)C(=O)/C1=C/c1ccc(-c2ccc(Cl)cc2Cl)o1,3600 nM
21,Cc1ccc(N2C(=O)/C(=C/c3ccc(O)c(O)c3)SC2=S)cc1C,4000 nM
22,Ic1ccc2c(c1)N(c1ccccc1)c1cc(N=c3ccc4nc5ccc(I)cc5n(-c5ccccc5)c-4c3)ccc1N2,2000 nM
